In patent US7557129B2, “Cyanopyridine derivatives useful in the treatment of cancer and other disorders” (Bayer Healthcare LLC, priority 2003, dated 2009) one finds melting point data, which are given here for 17 molecules.

In turn, `N#Cc1cc(Oc2ccc(NC(=O)Nc3ccc4c(c3)OC(F)(F)O4)cc2F)ccn1` [Entry 113, N-(2,2-difluorobenzo[d]1,3-dioxolan-5-yl){[4-(2-cyano(4-pyridyloxy))-3-fluorophenyl]amino}carboxamide] returned a melting point of 193.5 to 194.5 °C.
On to `N#Cc1cc(Oc2ccc(NC(=O)Nc3ccc4c(c3)C(F)(F)OC(F)(F)O4)c(F)c2F)ccn1` [Entry 129, {[4-(2-cyano(4-pyridyloxy))-2,3-difluorophenyl]amino}-N-(2,2,4,4-tetrafluorobenzo[3,4-e]1,3-dioxan-6-yl)carboxamide], for which the melting point was in the range of 181 to 182 °C.
For `N#Cc1cc(Oc2ccc(NC(=O)Nc3cc4ccccc4cn3)c(F)c2)ccn1` [Entry 160, {[4-(2-cyano(4-pyridyloxy))-2-fluorophenyl]amino}-N-(3-isoquinolyl)carboxamide], the melting point lay within 218 to 220 °C.
`CSc1cc(Oc2ccnc(C#N)c2)ccc1NC(=O)Nc1ccc2c(c1)C(F)(F)OC(F)(F)O2` [Entry 140, {[4-(2-cyano(4-pyridyl)oxy)-2-methylthiophenyl]amino}-N-(2,2,4,4-tetrafluorobenzo[3,4-e]1,3-dioxan-6-yl)carboxamide] registered a melting point of 183 to 185 °C.
`N#Cc1cc(Oc2ccc(NC(=O)Nc3cc(C(F)(F)F)ccn3)c(C(F)(F)F)c2)ccn1` [Entry 150, {[4-(2-cyano(4-pyridyloxy))-2-(trifluoromethyl)phenyl]amino}-N-[4-(trifluoromethyl)(2-pyridyl)]carboxamide] yielded a melting point of 209 to 210.5 °C.
In turn, `N#Cc1cc(Oc2ccc(NC(=O)Nc3ccc4c(c3)C(F)(F)OC(F)(F)O4)c(F)c2)ccn1` [Entry 124, {[4-(2-cyano(4-pyridyloxy))-2-fluorophenyl]amino}-N-(2,2,4,4-tetrafluorobenzo[3,4-e]1,3-dioxan-6-yl)carboxamide] returned a melting point of 169 to 171 °C.
The figure for `CCc1ccnc(NC(=O)Nc2ccc(Oc3ccnc(C#N)c3)cc2)c1` [Entry 153, {[4-(2-cyano(4-pyridyloxy))phenyl]amino}-N-(4-ethyl(2-pyridyl))carboxamide] is 209 to 210 °C; for `N#Cc1cc(Oc2ccc(NC(=O)Nc3ccnc(C(F)(F)F)c3)c(F)c2)ccn1` [Entry 142, {[4-(2-cyano(4-pyridyloxy))-2-fluorophenyl]amino}-N-[2-(trifluoromethyl)(4-pyridyl)]carboxamide] it is 192 to 193 °C.
As for `N#Cc1cc(Oc2ccc(NC(=O)Nc3cc(C(F)(F)F)ccn3)cc2)ccn1` [Entry 152, {[4-(2-cyano(4-pyridyloxy))phenyl]amino}-N-[4-(trifluoromethyl)(2-pyridyl)]carboxamide], the figure is 202 °C; as for `Cn1ncc2cc(NC(=O)Nc3ccc(Oc4ccnc(C#N)c4)cc3C(F)(F)F)ccc21` [Entry 165, {[4-(2-cyano(4-pyridyloxy))-2-(trifluoromethyl)phenyl]amino}-N-(1-methyl(1H-indazol-5-yl))carboxamide], 239 to 240 °C.
Turning to `N#Cc1cc(Oc2ccc(NC(=O)Nc3ccc4c(c3)C(F)(F)OC(F)(F)O4)cc2F)ccn1` [Entry 127, {[4-(2-cyano(4-pyridyloxy))-3-fluorophenyl]amino}-N-(2,2,4,4-tetrafluorobenzo[3,4-e]1,3-dioxan-6-yl)carboxamide], the melting point is 196 to 199.5 °C.
With `CS(=O)(=O)c1cc(Oc2ccnc(C#N)c2)ccc1NC(=O)Nc1ccc2c(c1)C(F)(F)OC(F)(F)O2` [Entry 141, {[4-(2-cyano(4-pyridyl)oxy)-2-(methylsulfonyl)phenyl]amino}-N-(2,2,4,4-tetrafluorobenzo[3,4-e]1,3-dioxan-6-yl)carboxamide], the melting point lay within 229 to 230 °C.
`N#Cc1cc(Oc2ccc(NC(=O)Nc3ccc4c(c3)C(F)(F)OC(F)(F)O4)c(C(F)(F)F)c2)ccn1` [Entry 128, {[4-(2-cyano(4-pyridyloxy))-2-(trifluoromethyl)phenyl]amino}-N-(2,2,4,4-tetrafluorobenzo[3,4-e]1,3-dioxan-6-yl)carboxamide] displayed a melting point of 220 to 221 °C.
The figure for `N#Cc1cc(Oc2ccc(NC(=O)Nc3cc4ccccc4cn3)cc2)ccn1` [Entry 159, {[4-(2-cyano(4-pyridyloxy))phenyl]amino}-N-(3-isoquinolyl)carboxamide] is 208 to 212 °C.
Turning to `Cc1ccc2cc(NC(=O)Nc3ccc(Oc4ccnc(C#N)c4)cc3)ccc2n1` [Entry 154, {[4-(2-cyano(4-pyridyloxy))phenyl]amino}-N-(2-methyl(6-quinolyl))carboxamide], the melting point is 245.5 °C.
As for `CC(C)(C)c1ccnc(NC(=O)Nc2ccc(Oc3ccnc(C#N)c3)cc2)c1` [Entry 143, N-[4-(tert-butyl)(2-pyridyl)]{[4-(2-cyano(4-pyridyloxy))phenyl]amino}carboxamide], the melting point was in the range of 216 to 217 °C.
With `N#Cc1cc(Oc2ccc(NC(=O)Nc3ccc4c(c3)OC(F)(F)O4)cc2)ccn1` [Entry 109, N-(2,2-difluorobenzo[d]1,3-dioxolan-5-yl){[4-(2-cyano(4-pyridyloxy))phenyl]amino}carboxamide], the melting point fell in the range of 199 to 200 °C.

One may read the melting point as the temperature of the solid-liquid transition.
